Results on six compounds are retold here after patent US20240400604A1, “NUCLEOSIDE TRIPHOSPHATE PHOTOAFFINITY PROBE, METHOD FOR PREPARING SAME, AND APPLICATIONS THEREOF” (SHANDONG UNIVERSITY, priority 2023, published 2024).

Assay [1] concerns GTP-binding proteins in HEK 293T cell lysates. In words: Proteomic LC-MS/MS analysis of HEK 293T cell lysate labeled with GTP probes. Set-up: species or system human. The method, then:
Under optimized conditions, HEK 293T cell lysates were labeled using the GTP photoaffinity probes. Peptide samples were prepared via the On-Beads enzymatic digestion method for proteomic study. Approximately 1 mg of proteins was labeled with 0.1 mM GTP probe and irradiated with 365-nm UV light for 30 min. To the solution were added freshly prepared tris-(2-carboxyethyl)phosphine (TCEP) until its concentration reached 1 mM, and a CuAAC reaction mixture to reach a final concentration of 1 mM CuSO4, 0.1 mM tris[(1-benzyl-1H-1,2,3-triazol-4-yl)methyl]amine (TBTA), and 0.5 mM biotin-PEG3-azide (for GTP-O probe labeled samples), or 0.5 mM biotin-DADPS-azide (for GTP-N probe labeled samples). The mixture was vortexed at room temperature for 2 hours and then precipitated in ice-cold methanol overnight.
The precipitated proteins were dissolved in 100 μL 4% SDS buffer (4% SDS, 150 mM NaCl, 50 mM HEPES, pH=7.4), and diluted with 900 μL SDS-free HEPES buffer (150 mM NaCl, 50 mM HEPES, pH=7.4). High-capacity streptavidin beads (50 μL per sample) were washed three times with 20 times volume of wash buffer (150 mM sodium chloride, 50 mM HEPES, pH=7.4) before adding to the samples. After incubation on a rotary shaker at room temperature for 2 hours, non-specifically bound proteins were washed away in a centrifugal filtration column using 1× PBS containing 1% SDS, 10× PBS, 1× PBS, water, and 50 mM ammonium bicarbonate solution with 8 M urea, each wash using 1 mL of solution for five times. The beads were transferred to a centrifuge tube using 50 mM ammonium bicarbonate solution containing 8 M urea and resuspended with 500 μL of this solution. The disulfide bonds were reduced by adding 20 mM TCEP and incubating at 37° C. for 1 hour, and then alkylated with 50 mM iodacetamide at room temperature in the dark for 30 minutes. After centrifugation at 3000 rpm for 2 minutes, the supernatant was gently removed. The beads were washed with 25 mM ammonium bicarbonate three times, resuspended in 100 μL 25 mM ammonium bicarbonate, and incubated with 1 μg of MS-grade trypsin (1 μg/μL) at 37° C. for 18 hrs.
The beads were washed with 200 μL of 25 mM ammonium bicarbonate solution, then centrifuged at 12000 rpm for 2 minutes to collect the supernatant. The procedure was repeated 6 times, and the supernatants were combined to obtain sample 1 (peptides without probe modification). For GTP-O probe labeled samples, the beads were resuspended in 200 μL of 70% acetonitrile solution containing 1% trifluoroacetic acid, vortexed for 5 minutes, then centrifuged at 12000 rpm for 2 minutes to collect the supernatant. The procedure was repeated 5 times, and the supernatants were combined to obtain sample 2 (containing probe-modified peptides). For GTP-N probe labeled samples, the beads were resuspended in 100 μL of 10% formic acid, incubated on a rotary shaker at room temperature for 30 minutes, then centrifuged at 12000 rpm for 2 minutes to collect the supernatant. The procedure was repeated 3 times, and the supernatants were combined. Trifluoroacetic acid was added to a final concentration of 1%, and incubated at 37° C. for 30 minutes to obtain sample 2. The peptide solutions were dried with a centrifugal concentrator and desalted using C18 tips, then frozen at −80° C. until LC-MS/MS detection. Samples were dissolved in 20 μL of pure water, 4 μL of sample 1 and 8 μL of sample 2 were injected for analysis.
An EASY-nLC 1200 liquid chromatography coupled with a Q-Exactive Orbitrap mass spectrometer was employed for LC-MS/MS analysis. A homemade C18 capillary column (inner diameter 75 μm, column length 18 cm) packed with Reprosil-Pur120 C18-AQ (Dr. maisch, particle size […]) was utilized as the separation column. The precolumn (inner diameter 150 μm, column length 4 cm) was packed with Reprosil-Pur120 C18-AQ (Dr. maisch, particle size 5 μm,). The mobile phase A was 0.1% formic acid, while mobile phase B was 0.1% formic acid in 80% acetonitrile, and the flow rate was 300 nL/min. […]

Assay [2] shares this test system. In words: In-gel fluorescence imaging of HEK 293T cell lysate labeled with the GTP probes. The following applies: competitor incubated on ice 10 minutes before probe; 50 μM GTP-O probe (FIG. 11). The protocol:
Appropriate amount cells were incubated on ice for 30 min in 1% lysis buffer (1% Triton X-100, 50 mM HEPES (pH 7.4), 150 mM NaCl, supplemented with phosphatase inhibitor A, phosphatase inhibitor B, and protease inhibitor right before use) at 5-10 times the cell volume. Vortexing for 5 seconds every 10 minutes. The cell lysates were centrifuged at 12,000 rpm at 4° C. for 30 min, and the supernatants were passed through an Amersham NAP-5 column to remove endogenous nucleosides. The proteins were quantified using a Bradford protein assay kit. Approximately 100 μg protein was diluted with 0.1% lysis buffer (0.1% Triton X-100, 50 mM HEPES, 150 mM sodium chloride). To the solution was added 1 mM magnesium chloride, the GTP probe and competitors to designated concentrations. The final volume for the reaction was 100 μL and the final protein concentration was […]. After incubated on ice, the solution was irradiated with 365-nm UV light for 30 min. To the solution were added freshly prepared tris-(2-carboxyethyl)phosphine (TCEP) until its concentration reached 1 mM, and a CuAAC reaction mixture to reach a final concentration of 1 mM CuSO4, 0.1 mM tris[(1-benzyl-1H-1,2,3-triazol-4-yl)methyl]amine (TBTA), and 0.1 mM rhodamine β-PEG3-azide. The mixture was incubated at room temperature for 2 hrs and then precipitated in a solution of chloroform: methanol: water (4:3:1, v/v). After washing with cold methanol and air dried, the protein pellet was dissolved in 30 μL 4% SDS buffer (4% SDS, 50 mM HEPES (pH 7.4), 150 mM NaCl, 50 mM Trolamine). The protein concentration was determined using a BCA protein assay kit. A solution of approximately 20 μg proteins was added 4×loading buffer (0.25M Trometamol, pH=6.8, 4% SDS, 40% Glycerol, 0.02% bromophenol blue, add 200 μL 2-Mercaptoethanol to 800 μL buffer right before use), boiled at 95° C. for 5 min and loaded onto an SDS-PAGE gel (4% stacking gel, 10% separating gel). Then perform SDS-PAGE separation at a constant voltage of 90 V for about 110 minutes. At the end of electrophoresis, cut the separation gel and imaged with an Amersham Imager 600 (GE Healthcare) at 520 nm. The gel was then stained with Coomassie Brilliant Blue staining solution (0.1% Coomassie brilliant blue, 10% acetic acid, 50% methanol) for 30 min and destained with destaining solution (10% acetic acid, 30% methanol) to remove background color.

Assay [3] concerns ATP-binding proteins in HEK 293T cell lysates. In words: In-gel fluorescence imaging of HEK 293T cell lysates labeled with the ATP-N probe. The following applies: 10 μM ATP-N probe, FIG. 23c.
In assay [4] the target is T1, PLCG1 (Homo sapiens, UniProt P19174).
T1 construct: the GTP-N probe was used for protein labeling of HEK 293T cell lysates; endogenous in cells; host or cells: HEK 293T cell lysate
T1 sequence (P19174 1-1290): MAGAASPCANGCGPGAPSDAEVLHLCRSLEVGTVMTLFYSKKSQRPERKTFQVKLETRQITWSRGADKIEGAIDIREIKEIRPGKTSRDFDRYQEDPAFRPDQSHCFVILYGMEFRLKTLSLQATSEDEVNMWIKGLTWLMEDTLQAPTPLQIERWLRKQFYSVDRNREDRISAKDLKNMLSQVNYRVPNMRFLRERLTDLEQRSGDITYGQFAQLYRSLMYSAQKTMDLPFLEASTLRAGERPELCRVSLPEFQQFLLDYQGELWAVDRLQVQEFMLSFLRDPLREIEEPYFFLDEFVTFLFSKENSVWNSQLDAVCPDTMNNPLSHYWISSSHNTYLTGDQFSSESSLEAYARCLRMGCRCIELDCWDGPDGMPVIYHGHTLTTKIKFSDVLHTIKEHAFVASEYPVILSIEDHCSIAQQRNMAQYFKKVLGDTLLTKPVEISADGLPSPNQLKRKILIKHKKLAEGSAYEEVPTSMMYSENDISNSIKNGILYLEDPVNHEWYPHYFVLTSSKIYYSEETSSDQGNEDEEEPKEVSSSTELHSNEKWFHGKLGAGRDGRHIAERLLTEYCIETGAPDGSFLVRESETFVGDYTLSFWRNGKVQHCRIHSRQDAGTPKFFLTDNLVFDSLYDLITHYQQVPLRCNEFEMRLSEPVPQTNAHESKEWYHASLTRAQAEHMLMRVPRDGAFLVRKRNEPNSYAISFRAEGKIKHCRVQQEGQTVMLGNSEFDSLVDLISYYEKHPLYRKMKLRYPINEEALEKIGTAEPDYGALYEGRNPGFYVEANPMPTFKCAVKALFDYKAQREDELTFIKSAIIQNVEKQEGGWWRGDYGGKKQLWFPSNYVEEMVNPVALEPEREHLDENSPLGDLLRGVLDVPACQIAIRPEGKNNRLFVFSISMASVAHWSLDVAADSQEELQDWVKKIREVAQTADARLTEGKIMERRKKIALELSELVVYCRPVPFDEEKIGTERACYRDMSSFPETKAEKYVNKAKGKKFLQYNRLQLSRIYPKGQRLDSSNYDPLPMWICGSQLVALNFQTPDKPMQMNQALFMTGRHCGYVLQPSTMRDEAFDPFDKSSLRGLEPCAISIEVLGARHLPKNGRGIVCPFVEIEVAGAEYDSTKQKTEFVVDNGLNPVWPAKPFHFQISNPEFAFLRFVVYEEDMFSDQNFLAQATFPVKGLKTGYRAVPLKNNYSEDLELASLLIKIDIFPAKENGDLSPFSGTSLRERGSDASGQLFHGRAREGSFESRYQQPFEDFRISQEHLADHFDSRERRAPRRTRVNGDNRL
Description: EHT 1864 competitive GTP-N probe labeling of HEK 293T cell lysates, LC-MS/MS. In kind it is binding. The following applies: GTP-N probe 20 μM; EHT 1864 20, 40, 100, 200 μM. The method, then:
(§1) Using the On-Beads digestion method, the GTP-N probe was used for protein labeling of HEK 293T cell lysates. For the competition experiments, a GTP-competitive inhibitor EHT 1864 was added before probe labeling to inhibit probe binding with targeted GTP-binding proteins. The final concentration of the probe was 20 μM, and EHT 1864 was used at concentrations of 20 μM, 40 μM, 100 μM, and 200 μM, respectively. The inhibitor was pre-incubated with cell lysates on ice for 10 minutes, followed by the GTP-N probe labeling, sample preparation, and LC-MS/MS analysis, same as in Section 1.3 of Example 3.

For assay [5], the target named is T2, ACTR2 (Homo sapiens, UniProt P61160).
T2 construct: endogenous in cells; host or cells: HEK 293T cell lysate
The assay is described as above. It counts as binding. The following applies: GTP-N probe 20 μM; EHT 1864 20, 40, 100, 200 μM. The protocol:
as §1

Assay [6] has as its target T3, ACTR3 (Homo sapiens, UniProt P61158).
T3 construct: the GTP-N probe was used for protein labeling of HEK 293T cell lysates; endogenous in cells; host or cells: HEK 293T cell lysate
Described as above. The following applies: GTP-N probe 20 μM; EHT 1864 20, 40, 100, 200 μM. It counts as binding. The protocol: as §1

[7] abbreviates: three biological replicates, 0.1 mM probe, control probe = GTP-ctrl probe.

With `C#CCCC1(CCOP(=O)(O)OP(=O)(O)OP(=O)(O)OC[C@H]2O[C@@H](n3cnc4c(=O)[nH]c(N)nc43)C(O)[C@H]2O)N=N1` (stereo partly shown) [GTP-O probe], the “probe-modified sites on labeled proteins” value in assay [1] (LC-MS/MS of sample 2 (probe-modified peptides)) is “not detected”. In assay [1] (setting [7]), the GTP-binding proteins identified is recorded as 95 and the total proteins identified was 1808.
Turning to `Nc1nc2c(ncn2[C@@H]2O[C@H](COP(=O)(O)OP(=O)(O)OP(=O)(O)O)[C@@H](O)[C@H]2O)c(=O)[nH]1` [GTP, guanosine triphosphate], the “competition effect on probe labeling (fluorescence of labeled bands)” value (from here on “competition effect on probe labeling”) in assay [2] is “significantly decrease the fluorescence intensity of several labeled proteins bands”.
In the case of `Nc1nc2c(ncn2[C@@H]2O[C@H](COP(=O)([O-])[O-])[C@@H](O)[C@H]2O)c(=O)[nH]1.[Na+].[Na+]` [GMP, guanosine 5′-monophosphate disodium salt], the “competition effect on probe labeling” value in assay [2] is “non-specific competition”.
Regarding `Nc1ncnc2c1ncn2[C@@H]1O[C@H](COP(=O)(O)O)[C@@H](O)[C@H]1O` [AMP, reference compound], the “competition effect on ATP-N probe labeling” value in assay [3] was “not significant”.
On to `Nc1ncnc2c1ncn2[C@@H]1O[C@H](COP(=O)(O)OP(=O)(O)OP(=O)(O)O)[C@@H](O)[C@H]1O` [ATP, adenosine triphosphate], for which the “competition effect on probe labeling” value in assay [2] is “non-specific competition”.
Consider `O=c1cc(CN2CCOCC2)occ1OCCCCCSc1ccnc2cc(C(F)(F)F)ccc12` [EHT 1864], for which the “protein intensity of PLCG1 in competition groups” value in assay [4] is given as “overall decreased protein intensities”. Besides, the “protein intensity of ACTR2 in competition groups” value in assay [5] is recorded as “overall decreased protein intensities”. Besides, in assay [6], the “protein intensity of ACTR3 in competition groups” value is “overall decreased protein intensities”.
